{
  "source": "patent US20140235630A1",
  "about": "“COMPOSITIONS AND METHODS FOR THE TREATMENT OF PROLIFERATIVE DISEASES” (Beth Israel Deaconess Medical Center, Inc., priority 2011, published 2014)",
  "key": {"[1]": {"test_system": "tumor microvasculature (CD31) of MMTV-CreBRCA1^f/fp53+/− tumors", "test": "Tumor vascularization: gross pathology, anti-CD31 stain, Chalkley count", "type": "in vivo, mouse", "procedure": "All animal experiments were conducted in accordance with IACUC-approved protocols at Beth Israel Deaconess Medical Center, Boston, and at the University of Vall d'Hebron, Barcelona, Spain. Female […] were obtained by breeding BRCA1 conditional knockout mice from the NIH repository (01XC8, strain C57BL/6) (Xu et al. Nat. Genet., 22: 37-43, 1999); with MMTV-Cre (Jackson Laboratory B6129-TgN(MMTV-Cre)4Mam) (Wagner et al. Nucleic Acids Res., 25: 4323-4330, 1997) and p53 knockout (Taconic Farms, P53N12-M, C57BL/6) (Donehower et al. Nature, 356: 215-221, 1992). […] The floxed or wild type status of Brca1, the presence of the MMTV-Cre transgene and the p53 heterozygosity were determined by PCR. Mice were examined for the occurrence of tumors twice weekly. When tumormetrics were performed, the length and width of the tumor was determined using calipers, and the tumor volume was determined (width^2×length/2). Tumor volume was used as a measure of growth and was recorded as ratio to tumor volume at diagnosis. […] Proc. Natl. Acad. Sci. USA., 105: 17079-17084, 2008) and dosed at 50 mg/kg/day. For patient-derived tumor grafts consent for tumor use was obtained from patients under a protocol approved by the Vall d'Hebron Hospital Clinical Investigation Ethical Committee. Tumors were subcutaneously implanted in 6-week-old female HsdCpb:NMRI-Foxn1nu mice (Harlan Laboratories, Italy) Animals were supplemented with 1 μM estradiol (Sigma) in the drinking water. After tumor graft growth, tumor tissue was re-implanted into recipient mice, which were randomized upon implant growth. For immunohistochemistry we used anti-cleaved caspase 3 (CC3) (9661S, Cell Signalling, Rabbit polyclonal Asp175), anti-Ki67 (9106-S; Thermo Scientific, Rabbit monoclonal SP6). All other antibodies used are described in the immunoblotting section below. All immunohistochemistries were done as described previously (Burga et al. Breast Cancer Res., 13:[…], 2011) including antigen retrieval with a citrate-buffer. […]"}, "[2]": {"test_system": "HCC1937 cells", "test": "DNA damage response immunoblots with or without ionizing radiation (10 Gy)", "type": "cell-based, human", "procedure": "FIG. 5A are immunoblots showing the effects of Compound A, ATM inhibitor KU-55933, and their combination on the DNA damage response. HCC1937 were treated for 18 hours with Compound A at 2.5 μM, KU55933 at 10 μM, or their combination, subjected to ionizing irradiation with 10 Gy or mock, lysed 6 hours later, and subjected to immunoblotting. […] Immunoblots were performed using the Nupage System (Invitrogen). The protein concentration was determined using Bradford reagent (Biorad). A total of 20 μg of protein were loaded, except for PAR, Phospho ATM and Phospho DNA-PK/PRKDC western blots, where 40 μg were loaded. Tumor tissue lysates were prepared similarly with the exception of tissue homogenization by using an electric homogenizer for 30 secs after addition of the lysis buffer. Primary antibodies used for western blotting were total AKT (9272), Cleaved […] 3 (9661), total ERK (4695), Phospho AKT Ser473 (4058), Phospho ERK Thr202/Tyr204 (9106), Phospho-Histone H2AX Ser139 (2577), PTEN (9559) from Cell Signaling. Phospho ATM […] (2152-1), Phospho DNA-PK/PRKDC […] (3892-1) from Epitomics, Inc. CD31 (ab28364), Actin (ab6276), INPP4B (ab81269) from Abcam; pADPr (sc56198) from Santacruz Biotechnology; and Ki-67 (RM-9106) was purchased from Thermo Scientific."}},
  "data": [
    {"smiles": "Nc1cc(C(F)(F)F)c(-c2cc(N3CCOCC3)nc(N3CCOCC3)n2)cn1", "note": "[Compound A, 5-(2,6-dimorpholinopyrimidin-4-yl)-4-(trifluoromethyl)pyridin-2-amine]", "values": [
      {"measurement": "gross pathology of tumors", "setting": "[1]; 50 mg/kg/day via gavage, 2 and 6 weeks", "value": "central pallor and, eventually, central necrosis"},
      {"measurement": "Chalkley count of CD31-positive microvessels: size and number of blood vessels", "setting": "[1]; before versus after treatment", "value": "starkly reduced"},
      {"measurement": "tumor microvasculature, anti-CD31 stain", "setting": "[1]; center of tumor treated for 6 weeks", "value": "diminished"},
      {"measurement": "H2AX phosphorylation in response to ionizing radiation", "setting": "[2]; 18 hours pre-treatment, 10 Gy, lysed 6 hours later", "value": "prominent augmentation"},
      {"measurement": "auto-phosphorylation of DNA-PK", "setting": "[2]; Compound A 2.5 μM, 18 hours", "value": "strong increase"},
      {"measurement": "PAR accumulation", "setting": "[2]; Compound A 2.5 μM, KU55933 10 μM", "value": "increased"},
      {"measurement": "Rad51 accumulation in response to ionizing radiation", "setting": "[2]; pre-treatment, 10 Gy", "value": "failure to increase Rad51"}
    ]}
  ]
}
